pEC50: −log10 of the molar value.
Tested on: HepG2 cells
Experiment: In vitro De Novo Lipogenesis (DNL) assay, 13C-acetate incorporation into palmitic acid
Format: cell-based
Conditions: 1 hour preincubation, 24 hours with 10 mM 13C-labeled acetate
Protocol: De Novo Lipogenesis (DNL) was measured in vitro in HepG2 cells by quantifying the incorporation of ^13C-labeled acetate into palmitic acid.
HepG2 cells were plated in growth medium (DMEM (Corning cat #15-018-CM) supplemented with 10% FBS (HyClone cat #SH30071-03), and 1× penicillin, streptomycin, glutamine (Corning cat #30-009-CI)) at 10,000 cells/well in a 384-well cell culture-treated plate (Greiner cat #781091). The cells were then incubated overnight at 37° C., 5% CO2. The next day, the cells were washed twice with sterile DPBS (Corning cat #21-031-CM) and the culture medium was changed to fresh growth medium. The compounds of interest were dosed to cells, followed by a 1 hour incubation at 37° C., 5% CO2. ^13C-labeled acetate (Sigma-Aldrich cat #279315-1G) was added to the culture medium at a concentration of 10 mM and the cells were incubated for 24 hours at 37° C., 5% CO2.
In order to analyze the lipid content of the HepG2 cells, the culture medium was removed and the cells were lysed by adding 30 μL of 0.1 M NaOH. After 5 minutes of incubation at room temperature, 15 μL of cell lysate was transferred to a 384-well deep-well plate (Sigma-Aldrich cat #BR701355-48EA) containing 15 μL of 7.3% KOH in ethanol and mixed. This plate was sealed and incubated at 70° C. for 4 hours to hydrolyze the lipids to free fatty acids. 100 μL of acetonitrile was then added and the plate was spun at 3,700 g for 20 minutes to separate the organic and aqueous phases. 50 μL from the top (organic) phase was transferred to a new 384-well plate (NUNC cat #264573) and the samples were analyzed by mass spectrometry using a RapidFire coupled to a QTOF mass spectrometer. The sum of the area under curve (AUC) for palmitate containing 3 to 7 ^13C was normalized with the AUC of oleate and plotted against compound concentration to determine the potency of ACC inhibitors. […]

Compound | pEC50 (Homo sapiens) | pEC50
COc1ccccc1[C@H](Cn1c(=O)n([C@H](C)C(=O)NS(=O)(=O)C2(C)CC2)c(=O)c2c(C)c(-c3ncco3)sc21)O[C@@H]1C[C@H]2CC[C@@H](C1)O2 [Example 18, (R)-2-(1-((R)-2-(((1R,3s,5S)-8-oxabicyclo[3.2.1]octan-3-yl)oxy)-2-(2-methoxyphenyl)ethyl)-5-methyl-6-(oxazol-2-yl)-2,4-dioxo-1,4-dihydrothieno[2,3-d]pyrimidin-3(2H)-yl)-N-((1-methylcyclopropyl)sulfonyl)propanamide] | 9.00 | –
COc1ccc(F)cc1[C@H](Cn1c(=O)n(C(C)(C)C(=O)NS(=O)(=O)C2(C)CC2)c(=O)c2c(C)c(-c3ncco3)sc21)O[C@@H]1C[C@H]2CC[C@@H](C1)O2 [Example 5, 2-(1-((R)-2-(((1R,3s,5S)-8-oxabicyclo[3.2.1]octan-3-yl)oxy)-2-(5-fluoro-2-methoxyphenyl)ethyl)-5-methyl-6-(oxazol-2-yl)-2,4-dioxo-1,4-dihydrothieno[2,3-d]pyrimidin-3(2H)-yl)-2-methyl-N-((1-methylcyclopropyl)sulfonyl)propanamide] | 8.54 | –
Cc1c(-c2ncco2)sc2c1c(=O)n(C1(C(=O)NS(=O)(=O)C(C)(C)C)CC1)c(=O)n2C[C@H](O[C@@H]1C[C@H]2CC[C@@H](C1)O2)c1cc(F)ccc1OC(F)F [Example 11, 1-(1-((R)-2-(((1R,3s,5S)-8-oxabicyclo[3.2.1]octan-3-yl)oxy)-2-(2-(difluoromethoxy)-5-fluorophenyl)ethyl)-5-methyl-6-(oxazol-2-yl)-2,4-dioxo-1,4-dihydrothieno[2,3-d]pyrimidin-3(2H)-yl)-N-(tert-butylsulfonyl)cyclopropane-1-carboxamide] | 7.18 | –
COc1ccc(F)cc1[C@H](Cn1c(=O)n(C(C)(C)C(=O)NS(=O)(=O)C2(C)CC2)c(=O)c2c(C)c(-c3ncsn3)sc21)O[C@@H]1C[C@H]2CC[C@@H](C1)O2 [Example 31, 2-(1-((R)-2-(((1R,3s,5S)-8-oxabicyclo[3.2.1]octan-3-yl)oxy)-2-(5-fluoro-2-methoxyphenyl)ethyl)-5-methyl-2,4-dioxo-6-(1,2,4-thiadiazol-3-yl)-1,4-dihydrothieno[2,3-d]pyrimidin-3(2H)-yl)-2-methyl-N-((1-methylcyclopropyl)sulfonyl)propanamide] | 8.85 | –
COc1ccccc1[C@H](Cn1c(=O)n(C2(C(=O)NS(=O)(=O)C3(C)CC3)CC2)c(=O)c2c(C)c(-n3nccn3)sc21)O[C@@H]1C[C@H]2CC[C@@H](C1)O2 [Example 25, 1-(1-((R)-2-(((1R,3s,5S)-8-oxabicyclo[3.2.1]octan-3-yl)oxy)-2-(2-methoxyphenyl)ethyl)-5-methyl-2,4-dioxo-6-(2H-1,2,3-triazol-2-yl)-1,4-dihydrothieno[2,3-d]pyrimidin-3(2H)-yl)-N-((1-methylcyclopropyl)sulfonyl)cyclopropane-1-carboxamide] | 9.00 | –
Cc1c(-c2ncco2)sc2c1c(=O)n(C1(C(=O)NS(=O)(=O)C(C)(C)C)CC1)c(=O)n2C[C@H](O[C@@H]1C[C@H]2CC[C@@H](C1)O2)c1ccccc1OC(F)F [Example 13, 1-(1-((R)-2-(((1R,3s,5S)-8-oxabicyclo[3.2.1]octan-3-yl)oxy)-2-(2-(difluoromethoxy)phenyl)ethyl)-5-methyl-6-(oxazol-2-yl)-2,4-dioxo-1,4-dihydrothieno[2,3-d]pyrimidin-3(2H)-yl)-N-(tert-butylsulfonyl)cyclopropane-1-carboxamide] | 6.05 | –
2-(1-((R)-2-(((1R,3s,5S)-8-oxabicyclo[3.2.1]octan-3-yl)oxy)-2-(2-methoxyphenyl)ethyl)-5-methyl-6-(oxazol-2-yl)-2,4-dioxo-1,4-dihydrothieno[2,3-d]pyrimidin-3 (2H)-yl)-N-(tert-butylsulfonyl)-2-methylpropanamide [Example 3] | – | 8.82
COCCOc1ccccc1[C@H](Cn1c(=O)n(C(C)(C)C(=O)NS(=O)(=O)C2(C)CC2)c(=O)c2c(C)c(-n3nccn3)sc21)O[C@@H]1C[C@H]2CC[C@@H](C1)O2 [Example 24, 2-(1-((R)-2-(((1R,3s,5S)-8-oxabicyclo[3.2.1]octan-3-yl)oxy)-2-(2-(2-methoxyethoxy)phenyl)ethyl)-5-methyl-2,4-dioxo-6-(2H-1,2,3-triazol-2-yl)-1,4-dihydrothieno[2,3-d]pyrimidin-3(2H)-yl)-2-methyl-N-((1-methylcyclopropyl)sulfonyl)propanamide] | 7.61 | –
COc1ccccc1[C@H](Cn1c(=O)n(C(C)(C)C(=O)NS(=O)(=O)C2CC2)c(=O)c2c(C)c(-c3ncco3)sc21)O[C@@H]1C[C@H]2CC[C@@H](C1)O2 [Example 4, 2-(1-((R)-2-(((1R,3s,5S)-8-oxabicyclo[3.2.1]octan-3-yl)oxy)-2-(2-methoxyphenyl)ethyl)-5-methyl-6-(oxazol-2-yl)-2,4-dioxo-1,4-dihydrothieno[2,3-d]pyrimidin-3 (2H)-yl)-N-(cyclopropylsulfonyl)-2-methylpropanamide] | – | 8.77
COc1ccccc1[C@H](Cn1c(=O)n([C@@H](C)C(=O)NS(=O)(=O)C(C)(C)C)c(=O)c2c(C)c(-c3ncco3)sc21)O[C@@H]1C[C@H]2CC[C@@H](C1)O2 [Example 17, (S)-2-(1-((R)-2-(((1R,3s,5S)-8-oxabicyclo[3.2.1]octan-3-yl)oxy)-2-(2-methoxyphenyl)ethyl)-5-methyl-6-(oxazol-2-yl)-2,4-dioxo-1,4-dihydrothieno[2,3-d]pyrimidin-3(2H)-yl)-N-(tert-butylsulfonyl)propanamide] | 7.39 | –
Cc1c(-n2nccn2)sc2c1c(=O)n(C1(C(=O)NS(=O)(=O)C(C)(C)C)CC1)c(=O)n2C[C@H](O[C@H]1C[C@H]2CC[C@@H](C1)O2)c1ccccc1OC(F)F [Example 22, 1-(1-((R)-2-(((1R,3r,5S)-8-oxabicyclo[3.2.1]octan-3-yl)oxy)-2-(2-(difluoromethoxy)phenyl)ethyl)-5-methyl-2,4-dioxo-6-(2H-1,2,3-triazol-2-yl)-1,4-dihydrothieno[2,3-d]pyrimidin-3(2H)-yl)-N-(tert-butylsulfonyl)cyclopropane-1-carboxamide] | 6.04 | –
Cc1c(-c2ncco2)sc2c1c(=O)n(C(C)(C)C(=O)NS(=O)(=O)c1ccccn1)c(=O)n2C[C@H](O[C@@H]1C[C@H]2CC[C@@H](C1)O2)c1cc(F)ccc1OC(F)F [Example 9, 2-(1-((R)-2-(((1R,3s,5S)-8-oxabicyclo[3.2.1]octan-3-yl)oxy)-2-(2-(difluoromethoxy)-5-fluorophenyl)ethyl)-5-methyl-6-(oxazol-2-yl)-2,4-dioxo-1,4-dihydrothieno[2,3-d]pyrimidin-3(2H)-yl)-2-methyl-N-(pyridin-2-ylsulfonyl)propanamide] | 6.67 | –
Cc1c(-n2nccn2)sc2c1c(=O)n(C1(C(=O)NS(=O)(=O)C3(C)CC3)CC1)c(=O)n2C[C@H](O[C@H]1C[C@H]2CC[C@@H](C1)O2)c1ccccc1OC(F)F [Example 23, 1-(1-((R)-2-(((1R,3r,5S)-8-oxabicyclo[3.2.1]octan-3-yl)oxy)-2-(2-(difluoromethoxy)phenyl)ethyl)-5-methyl-2,4-dioxo-6-(2H-1,2,3-triazol-2-yl)-1,4-dihydrothieno[2,3-d]pyrimidin-3(2H)-yl)-N-((1-methylcyclopropyl)sulfonyl)cyclopropane-1-carboxamide] | 6.57 | –

— patent US11352371B2, “Thienopyrimidine derivatives as ACC inhibitors and uses thereof” (Gilead Sciences, Inc., priority 2019, dated 2022)
